In PubChem BioAssay (NCI):
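All cell lines were grown in 96-well plates and treated with compound for 48 hours. TGI is the concentration that stops growth completely.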

test system: SK-OV-3 ovarian; assay: inhibition of tumour cell growth, NCI panel, 48 h

Question: Which TGI does the source give for `Cc1cn([C@@H]2C[C@H](CO)[C@@H](O)C2)c(=O)[nH]c1=O` here?
Answer: > 100 µM

Question: For `CC1CN=C(N(C(=O)Nc2ccc(F)c(Cl)c2)c2ccccc2)S1` (stereo unspecified), which TGI is on record?
Answer: 98.7 µM

Question: Which TGI does the source give for `C=Cc1ccc(C)[n+](C[Si](C)(C)O[Si](C)(C)C[n+]2cc(C=C)ccc2C)c1` here?
Answer: > 100 µM

Question: `O=c1[nH]cnc(NC2C=C(CO)C(O)C2O)c1[N+](=O)[O-]` (stereo unspecified) was tested. Which TGI did it give?
Answer: > 100 µM

Question: For `CCOC(=O)C1(C(=O)OCC)COS(=O)OC1`, which TGI is on record?
Answer: > 100 µM

Question: For `O=C(NC(COC(=O)C(Cc1ccccc1)NC(=O)c1ccccc1)Cc1ccccc1)c1ccccc1` (stereo unspecified), which TGI is on record?
Answer: > 50 µM

Question: With `CCOC(=O)c1nc2ccc(C(F)(F)F)cc2nc1Oc1ccc(C#N)cc1` as the molecule, how does the TGI read?
Answer: 46 µM

Question: Which TGI does the source give for `CC(=O)OCC1OC(n2cc(I)c(=O)[nH]c2=O)C(OC(C)=O)C(OC(C)=O)C1OC(C)=O` (stereo unspecified) here?
Answer: > 100 µM

Question: With `CC(O)CCCOC(c1ccccc1)(c1ccccc1)c1ccccc1` (stereo unspecified) as the molecule, how does the TGI read?
Answer: 30.8 µM

Question: With `COC(=O)c1cc2c(cc1CC1Cc3cc4c(cc3C1)CCC4)CCC2` as the molecule, how does the TGI read?
Answer: > 100 µM

Question: For `O=C1NCCS(=O)(=O)N[C@@H](CC2=CC=CCC2)C(=O)N2CCCC12` (stereo partly specified), which TGI is on record?
Answer: > 100 µM

Question: For `O=[N+]([O-])c1ccc(/C=C/c2cc(-c3ccccc3)nc3ccc4ccccc4c23)cc1`, which TGI is on record?
Answer: > 100 µM

Question: Which TGI does the source give for `COc1ccc(-c2oc(/C=N/NC(N)=S)c([N+](=O)[O-])c2-c2ccc(OC)c(OC)c2)cc1OC` here?
Answer: 69.3 µM

Question: Which TGI does the source give for `CCC1=NC(C(F)(F)F)(C(F)(F)F)N=C(N2CCOCC2)O1` here?
Answer: > 100 µM

Question: Which TGI does the source give for `CCN1CCCC(NCc2c3ccccc3c(CNC3CCCN(CC)C3)c3ccccc23)C1` (stereo unspecified) here?
Answer: 36.7 µM

Question: Which TGI does the source give for `COc1c(O)c2c3c(c(C)cc(O)c3c1O)C(=O)C(O)(C(C)(C)C(C)=O)C2=O` (stereo unspecified) here?
Answer: > 100 µM

Question: Which TGI does the source give for `Nc1nc(N)c(N=O)c(Nc2ccc(Br)cc2)n1` here?
Answer: > 100 µM

Question: For `CC(=O)O/N=C/c1c2ccccc2cc2ccccc12`, which TGI is on record?
Answer: 69.6 µM

Question: How did the TGI turn out when `O=C(NCCCN(CCCCN(CCCNC(=O)C(F)(F)F)Cc1ccc2ccccc2c1)Cc1ccc2ccccc2c1)C(F)(F)F` was run?
Answer: > 100 µM

Question: How did the TGI turn out when `CCC1=CC2CN3Cn4c(c(COCc5c6n(c7ccccc57)CN5CC7C=C(CC)C5C6(C(=O)OC)C7)c5ccccc54)C(C(=O)OC)(C2)C13` was run?
Answer: > 100 µM

Question: Which TGI does the source give for `CCOC(CNCCC(=O)OC)OCC` here?
Answer: > 10 µM

Question: How did the TGI turn out when `C[C@@H](Cl)[C@H]1CCCN(Cc2ccc(Br)cc2)C1` was run?
Answer: > 12.5 µM

Question: Which TGI does the source give for `Cc1c(N2C(=O)C(Cl)C2c2ccc(Cl)cc2)c(=O)n(-c2ccccc2)n1C` (stereo unspecified) here?
Answer: > 100 µM

Question: For `COc1cc2nc(-c3cccs3)oc(=O)c2cc1OC`, which TGI is on record?
Answer: > 100 µM

test system: SNB-19 CNS; assay: inhibition of tumour cell growth, NCI panel, 48 h

Question: Which TGI does the source give for `Cn1ccnc1C(O)(c1nccn1C)c1nccn1C` here?
Answer: > 100 µM

Question: Which TGI does the source give for `Cc1ccc(CC[P+](=O)CCc2ccc(C)nc2)cn1` here?
Answer: > 100 µM

Question: For `CC12CCC3C(CCC4CC(OC(=O)Cc5ccc(N(CCCl)CCCl)cc5)CCC43C)C1CCC(=O)N2` (stereo unspecified), which TGI is on record?
Answer: 32.5 µM

Question: How did the TGI turn out when `O=C(O)c1cc(-c2ccc3c(O)c(O)ccc3c2)ccc1O` was run?
Answer: > 75 µM

Question: `CCN(CC)CCCNC(=O)c1ccc([N+](=O)[O-])cc1O` was tested. Which TGI did it give?
Answer: > 100 µM

Question: For `Cc1cn([C@@H]2C[C@H](CO)[C@@H](O)C2)c(=O)[nH]c1=O`, which TGI is on record?
Answer: > 100 µM

Question: How did the TGI turn out when `CC1CN=C(N(C(=O)Nc2ccc(F)c(Cl)c2)c2ccccc2)S1` (stereo unspecified) was run?
Answer: > 100 µM

Question: For `C=Cc1ccc(C)[n+](C[Si](C)(C)O[Si](C)(C)C[n+]2cc(C=C)ccc2C)c1`, which TGI is on record?
Answer: > 100 µM

Question: `O=c1[nH]cnc(NC2C=C(CO)C(O)C2O)c1[N+](=O)[O-]` (stereo unspecified) was tested. Which TGI did it give?
Answer: > 100 µM

Question: `CCOC(=O)C1(C(=O)OCC)COS(=O)OC1` was tested. Which TGI did it give?
Answer: > 100 µM

Question: How did the TGI turn out when `O=C(NC(COC(=O)C(Cc1ccccc1)NC(=O)c1ccccc1)Cc1ccccc1)c1ccccc1` (stereo unspecified) was run?
Answer: > 50 µM

Question: With `CCOC(=O)c1nc2ccc(C(F)(F)F)cc2nc1Oc1ccc(C#N)cc1` as the molecule, how does the TGI read?
Answer: 35.3 µM

Question: With `CC(=O)OCC1OC(n2cc(I)c(=O)[nH]c2=O)C(OC(C)=O)C(OC(C)=O)C1OC(C)=O` (stereo unspecified) as the molecule, how does the TGI read?
Answer: > 100 µM

Question: `CC(O)CCCOC(c1ccccc1)(c1ccccc1)c1ccccc1` (stereo unspecified) was tested. Which TGI did it give?
Answer: 29.6 µM

Question: `COC(=O)c1cc2c(cc1CC1Cc3cc4c(cc3C1)CCC4)CCC2` was tested. Which TGI did it give?
Answer: > 100 µM

Question: Which TGI does the source give for `CC(C(=O)N1C(=O)N(C(=O)C(C)C(O)c2ccccc2)C2CCCCC21)C(O)c1ccccc1` (stereo unspecified) here?
Answer: > 100 µM

Question: `O=C1NCCS(=O)(=O)N[C@@H](CC2=CC=CCC2)C(=O)N2CCCC12` (stereo partly specified) was tested. Which TGI did it give?
Answer: > 100 µM

Question: Which TGI does the source give for `O=[N+]([O-])c1ccc(/C=C/c2cc(-c3ccccc3)nc3ccc4ccccc4c23)cc1` here?
Answer: > 100 µM

Question: With `COc1ccc(-c2oc(/C=N/NC(N)=S)c([N+](=O)[O-])c2-c2ccc(OC)c(OC)c2)cc1OC` as the molecule, how does the TGI read?
Answer: 97 µM

Question: `CCC1=NC(C(F)(F)F)(C(F)(F)F)N=C(N2CCOCC2)O1` was tested. Which TGI did it give?
Answer: > 100 µM

Question: Which TGI does the source give for `CCN1CCCC(NCc2c3ccccc3c(CNC3CCCN(CC)C3)c3ccccc23)C1` (stereo unspecified) here?
Answer: 65.8 µM

Question: `COc1c(O)c2c3c(c(C)cc(O)c3c1O)C(=O)C(O)(C(C)(C)C(C)=O)C2=O` (stereo unspecified) was tested. Which TGI did it give?
Answer: > 100 µM

Question: `Nc1nc(N)c(N=O)c(Nc2ccc(Br)cc2)n1` was tested. Which TGI did it give?
Answer: > 100 µM

Question: Which TGI does the source give for `CC(=O)O/N=C/c1c2ccccc2cc2ccccc12` here?
Answer: > 100 µM

Question: How did the TGI turn out when `CCC1=CC2CN3Cn4c(c(COCc5c6n(c7ccccc57)CN5CC7C=C(CC)C5C6(C(=O)OC)C7)c5ccccc54)C(C(=O)OC)(C2)C13` was run?
Answer: > 100 µM

Question: Which TGI does the source give for `CCOC(CNCCC(=O)OC)OCC` here?
Answer: > 10 µM

Question: How did the TGI turn out when `COc1ccc(CC2c3c(cc(OC)c(OC)c3OC)CCN2C)cc1OC` (stereo unspecified) was run?
Answer: > 100 µM

Question: `C[C@@H](Cl)[C@H]1CCCN(Cc2ccc(Br)cc2)C1` was tested. Which TGI did it give?
Answer: > 12.5 µM

Question: With `COc1cc2nc(-c3cccs3)oc(=O)c2cc1OC` as the molecule, how does the TGI read?
Answer: > 100 µM

test system: U251 CNS; assay: inhibition of tumour cell growth, NCI panel, 48 h

Question: With `Cn1ccnc1C(O)(c1nccn1C)c1nccn1C` as the molecule, how does the TGI read?
Answer: > 100 µM

Question: How did the TGI turn out when `Cc1ccc(CC[P+](=O)CCc2ccc(C)nc2)cn1` was run?
Answer: > 100 µM

Question: With `CC12CCC3C(CCC4CC(OC(=O)Cc5ccc(N(CCCl)CCCl)cc5)CCC43C)C1CCC(=O)N2` (stereo unspecified) as the molecule, how does the TGI read?
Answer: 28.4 µM
